Laboratory results: patent publication US10456465B2, “Compositions, kits, and methods for the diagnosis prognosis, monitoring, treatment and modulation of post-transplant lymphoproliferative disorders and hypoxia associated angiogenesis disorders using galectin-1” (Dana-Farber Cancer Institute, Inc., priority 2009, dated 2019)
Each block holds one compound with its values, some of them ahead of it.

Experiments:
KS cells = assay: Gal1 expression and secretion by KS cells (hypoxia/normoxia); assay type: cell-based, human; conditions: for IκB-α degradation: hypoxia; for hypoxia-driven Gal1 expression and secretion: hypoxia (1% O2)
Gal1 = molecular target: T1, Gal1 (Homo sapiens, UniProt P09382); assay: Binding of 488-Gal1 to HUVEC; conditions: lactose/sucrose 30 mM, swainsonine 3 μM, benzyl-α-GalNAc 2 mM, mAb 0.5 μM
T1 construct: made in house
Procedure: For glycophenotyping, ECs were incubated with biotinylated L-PHA, LEL, SNA, MAL II, PNA and HPA (all from Vector). Recombinant Gal1 was purified as described in Ilarregui et al. (2009) Nat Immunol 10, 981-991. For binding assays, ECs were incubated for 1 h at 4° C. with dyLight 488-labeled galectins in the absence or presence of lactose, sucrose, anti-Gal1 or isotype control mAb or following transfection with GnT5, GCNT1 or scrambled siRNA. Cells were analyzed on a FACSAria (BD Biosciences). For segregation, ECs were treated with Gal1 for 1 h, fixed and incubated for 1 h with anti-human VEGFR2 antibody (55B11; Cell Signaling) as described in Ilarregui et al. (2009) Nat Immunol 10, 981-991. Cells were analyzed on a Nikon laser confocal microscope (Eclipse E800).
DyLight 488-conjugated Gal1 (488-Gal1) was obtained using DyLight labeling kit (Thermo Scientific). Inhibitors of Jak2-STAT3 (AG490; 5 μM), Jnk-SAP (SP600125; 20 μM), p38 (SB202190; 10 μM), HIF-1α (3 μM) and O-glycosylation (benzyl-α-Ga1NAc; 2 mM) were from Calbiochem. Inhibitors of Erk1/2 (U0126; 5 μM), PI(3)K-Akt (Ly294002; 2 μM) and NF-κB (BAY 11-7082; 1 μM), ROS (N-acetyl-cysteine; NAC), N-glycosylation (swainsonine; 3 μM), lactose or sucrose (30 mM) were from Sigma. PNGase F (25 U/μg protein) was from New England Biolabs. Recombinant cytokines including IL-10 (50 ng/ml), IL-17 (5 ng/ml), TGF-β1 (3 ng/ml), IFN-γ (50 ng/ml), VEGF (20 ng/ml), bFGF (10 ng/ml) were from R&D. TNF (20 ng/ml) was from Sigma. Biotinylated lectins, including L-PHA (2 μg/ml), LEL (1 μg/ml), SNA (5 μg/ml), MAL II (10 μg/ml), PNA (10 μg/ml) and HPA (10 μg/ml) were purchased from Vector Labs and incubated in buffer containing 150 mM NaCl, 10 mM HEPES and 1% BSA (Sigma). ON-TARGETplus SMART siRNA pools against GnT5, GCNT1, VEGFR2, NRP-1, VEGF, HIF-1α and scrambled were obtained from Dharmacon. Transfections were performed by Lipofectamine-RNAiMAX (Invitrogen) following manufacturer's directions. Recombinant Gal3 and Gal8 were purified as described in Acosta-Rodriguez et al. (2004) J Immunol 172, 493-502 and Cardenas Delgado et al. (2010) FASEB J [Epub ahead of print].

HUVEC [1] = assay: HUVEC proliferation ([3H]thymidine incorporation); assay type: cell-based, human; conditions: induced by Gal1
Procedure: (§1) HUVEC transfected or not with specific siRNA or pre-incubated with signaling pathway inhibitors were exposed to VEGF or Gal1 with or without lactose, sucrose, 8F4F8G7 mAb or control isotype (IgG1κ) or specific antibodies for VEGFR1 (AP-MAB0702; Abcam), VEGFR2 (AF357; R&D), VEGFR3 (AB89501; Abcam) or VEGF (MAB293; R&D). Cells were processed for proliferation, migration, invasion and tube formation assays. Tumor-associated blood vessels were identified by flow cytometry using Alexa Fluor 647-conjugated anti-CD34 antibody (RAM34; eBioscience).
For proliferation assays, HUVEC that were transfected or not with specific siRNA and cultured in complete M199 medium were trypsinized, harvested and seeded in 96-well microtiter plates (1×10^3 cells/well). Cells were pre-incubated for 1 hour at 37° C. with lactose, sucrose or signaling pathway inhibitors and then exposed to Gal1. After 24 hours, cells were incubated for an additional 24 hours in the presence of 0.8 μCi [^3H]-thymidine (NEN Dupont). Cells were then harvested and radioactivity was measured in a 1414 Liquid Scintillation Counter (Perkin Elmer).

HUVEC [2] = assay: HUVEC migration (transwell); assay type: cell-based, human; conditions: induced by Gal1
Procedure: as §1
(§2) The formation of capillary-like tubular structures was assessed in Matrigel-coated plates essentially as described in Albini et al. (2001), Cancer Res 61, 8171-8178. In brief, HUVEC (3×10^4 cells/ml) transfected or not with specific siRNA or pre-incubated with signaling pathway inhibitors were seeded on Matrigel with our without Gal1 (0.1 to 3 μM) or VEGF (20 ng/ml) with or without lactose, sucrose, 8F4F8G7 mAb (0.5 μM) or isotype control (IgG1K) or blocking antibodies specific for VEGFR1 (5 μg/ml), VEGFR2 (2 μg/ml), VEGFR3 (10 μg/ml) or VEGF (10 μg/ml). Cells were incubated at 37° C. for periods ranging from 0 to 24 h and were visualized by phase-contrast microscopy. In another set of experiments, conditioned medium from hypoxic or normoxic KS cells infected or not with a retroviral vector containing Gal1 shRNA was assessed on HUVEC transfected or not with GnT5, GCNT1 or scr siRNA (100 nM). Capillary-like tubular structures were scored by counting the number of tubules (closed areas) per well in a phase-contrast microscope (Nikon E-100). For migration assays, HUVEC (4×10^4/well) transfected or not with specific siRNA were resuspended in M199 medium supplemented with 1% FCS. Cells were placed into the top chamber of the insert while the bottom well was filled with Gal1 or VEGF in the absence or presence of lactose, sucrose, 8F4F8G7 mAb or isotype control. After 24 hours, inserts were stained with crystal violet (Sigma) and analyzed in an inverted microscope. For each filter, 4 images were collected and cells were counted with the ImageJ software v1.34 (NIH).

HUVEC [3] = assay: HUVEC capillary tube formation on Matrigel; assay type: cell-based, human; conditions: induced by Gal1
Procedure: as §1, §2

mice (Matrigel plugs) = assay: In vivo vascularization of Matrigel sponges; design: species or system mouse; conditions: lactose 30 mM
Procedure: Invasion assays were performed using the BioCoat Angiogenesis system (BD Biosciences) following manufacturer's recommendations. For assessment of in vivo angiogenesis, growth factor-reduced Matrigel (BD Biosciences) was mixed with Gal1 (0.1 or 3 μM) with or without lactose (30 mM). In another set of experiments, serum-free CM from KS cells infected or not with a retroviral vector expressing Gal1 shRNA and cultured under hypoxic or normoxic conditions, were added to unpolymerized Matrigel and injected subcutaneously into the flanks of either wild-type or Lgals1^−/− (B6) mice or nude mice using a cold syringe. Matrigel embedded with buffer alone was used as negative control and a cocktail containing VEGF (50 ng/ml), heparin (50 U/ml) and TNF (2 ng/ml) was used as positive control. After 6 days, Matrigel plugs were collected by surgery, photographed and weighed. Samples were minced and diluted in water to measure hemoglobin content using the Drabkin reagent kit (Sigma). Each sample was normalized to 100 mg of recovered gel and confronted with a standard curve of mouse blood hemoglobin.

T1 sequence (P09382 whole entry): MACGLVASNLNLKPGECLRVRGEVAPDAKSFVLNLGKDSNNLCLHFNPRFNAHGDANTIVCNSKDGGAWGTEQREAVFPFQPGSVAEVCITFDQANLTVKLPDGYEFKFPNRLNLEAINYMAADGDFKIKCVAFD

SMILES: Cc1ccc(S(=O)(=O)/C=C/C#N)cc1 [BAY-117802]
- IκB-α degradation (KS cells; KS cells): prevented
- hypoxia-driven Gal1 expression and secretion (KS cells; KS cells): completely eliminated

SMILES: [Cl-].[Cl-].[Co+2] [CoCl2]
- Gal1 expression (KS cells): no effect

SMILES: OO [H2O2]
- secretion of Gal1 (KS cells; KS cells, exogenous administration): stimulated

SMILES: CC(=O)N[C@@H](CS)C(=O)O [N-acetyl-cysteine]
- IκB-α degradation (KS cells; KS cells): prevented
- hypoxia-driven Gal1 expression and secretion (KS cells; KS cells): strongly inhibited

- effect on binding of Gal1 to ECs (Gal1): only partially inhibitory
SMILES: CC(=O)N[C@H]1[C@@H](OCc2ccccc2)O[C@H](CO)[C@H](O)[C@@H]1O [benzyl-α-Ga1NAc]

- effect on binding of Gal1 to ECs (Gal1): prevented
SMILES: OC[C@H]1O[C@@H](O[C@H]2[C@H](O)[C@@H](O)C(O)O[C@@H]2CO)[C@H](O)[C@@H](O)[C@H]1O (some centres unmarked) [lactose, reference compound]
- effect on Gal1-induced EC proliferation (HUVEC [1]): completely prevented
- effect on Gal1-induced EC migration (HUVEC [2]): completely prevented
- effect on Gal1-induced capillary tube formation (HUVEC [3]): completely prevented
- effect on Gal1-induced vascularization of Matrigel sponges (mice (Matrigel plugs)): specifically inhibited

- effect on binding of Gal1 to ECs (Gal1): not
SMILES: OC[C@H]1O[C@@](CO)(O[C@H]2O[C@H](CO)[C@@H](O)[C@H](O)[C@H]2O)[C@@H](O)[C@@H]1O [sucrose]

SMILES: O[C@H]1[C@H]2[C@H](O)CCCN2C[C@H]1O [swainsonine]
- effect on binding of Gal1 to ECs (Gal1): almost completely abrogated
